Assay results reported in patent US20260285872A1, “COMPOUNDS AND METHODS FOR DEGRADING GSPT1” (priority 2023, published 2026).
Where two headings read alike, the source gives them in different places.

Legend:
GSPT1 = GSPT1 (Homo sapiens, UniProt P15170+Q96SW2); format: cell-based
Description: GSPT1_HiBIT_HEK293 cells were culture in DMEM medium with 10% FBS under standard tissue culture conditions. […] GSPT1 level was determined in along with the Nano-Glo HiBiT Lytic Detection system [Promega N3050] with final concentration of 1×. The luminescence was normalized to that of DMSO-treated samples. DC50 values were obtained using three-parameter non-linear regressions using Prism (GraphPad).

NCI-H1155 cells = assay: NSCLC cell viability, CellTiter-Glo, NCI-H1155 cells; format: cell-based; details: Homo sapiens; NCI-H1155 cells, CellTiter-Glo, 72 hours of treatment; read-out: Cell viability classification (NCI-H1155)
[1] = DC50, GSPT1_HiBIT_HEK293 cells, 16 hours, Nano-Glo HiBiT Lytic Detection; read-out: GSPT1 degradation classification
[2] = read-out: GSPT1 degradation classification; DC50, GSPT1_HiBIT_HEK293 cells, 16 hours, Nano-Glo HiBiT Lytic Detection

GSPT1, sequence (P15170 whole entry): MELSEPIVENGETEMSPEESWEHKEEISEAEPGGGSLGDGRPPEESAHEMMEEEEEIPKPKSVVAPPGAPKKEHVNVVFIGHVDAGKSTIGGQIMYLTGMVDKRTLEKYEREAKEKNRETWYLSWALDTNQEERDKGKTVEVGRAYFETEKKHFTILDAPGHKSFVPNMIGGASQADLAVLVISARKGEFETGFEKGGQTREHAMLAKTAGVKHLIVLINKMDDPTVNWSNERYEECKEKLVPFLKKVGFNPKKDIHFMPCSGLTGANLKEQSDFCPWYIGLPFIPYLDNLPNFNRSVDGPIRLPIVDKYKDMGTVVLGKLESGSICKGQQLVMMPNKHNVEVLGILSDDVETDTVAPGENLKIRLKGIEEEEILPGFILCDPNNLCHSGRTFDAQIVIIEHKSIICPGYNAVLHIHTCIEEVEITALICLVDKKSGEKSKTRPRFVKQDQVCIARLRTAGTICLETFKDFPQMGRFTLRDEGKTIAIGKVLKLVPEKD
GSPT1, sequence (Q96SW2 whole entry): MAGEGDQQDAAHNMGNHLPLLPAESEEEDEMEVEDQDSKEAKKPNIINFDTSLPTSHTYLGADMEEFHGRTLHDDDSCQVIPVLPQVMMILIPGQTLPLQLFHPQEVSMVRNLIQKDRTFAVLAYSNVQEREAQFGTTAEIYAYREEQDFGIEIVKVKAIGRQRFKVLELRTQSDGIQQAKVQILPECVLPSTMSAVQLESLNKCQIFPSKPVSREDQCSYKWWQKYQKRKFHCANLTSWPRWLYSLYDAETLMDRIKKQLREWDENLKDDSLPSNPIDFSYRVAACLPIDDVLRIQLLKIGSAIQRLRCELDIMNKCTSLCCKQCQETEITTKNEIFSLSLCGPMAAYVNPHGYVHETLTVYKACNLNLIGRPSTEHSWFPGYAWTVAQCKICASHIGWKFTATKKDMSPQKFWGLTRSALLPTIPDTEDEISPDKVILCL
GSPT1, sequence (Q16531 whole entry partner): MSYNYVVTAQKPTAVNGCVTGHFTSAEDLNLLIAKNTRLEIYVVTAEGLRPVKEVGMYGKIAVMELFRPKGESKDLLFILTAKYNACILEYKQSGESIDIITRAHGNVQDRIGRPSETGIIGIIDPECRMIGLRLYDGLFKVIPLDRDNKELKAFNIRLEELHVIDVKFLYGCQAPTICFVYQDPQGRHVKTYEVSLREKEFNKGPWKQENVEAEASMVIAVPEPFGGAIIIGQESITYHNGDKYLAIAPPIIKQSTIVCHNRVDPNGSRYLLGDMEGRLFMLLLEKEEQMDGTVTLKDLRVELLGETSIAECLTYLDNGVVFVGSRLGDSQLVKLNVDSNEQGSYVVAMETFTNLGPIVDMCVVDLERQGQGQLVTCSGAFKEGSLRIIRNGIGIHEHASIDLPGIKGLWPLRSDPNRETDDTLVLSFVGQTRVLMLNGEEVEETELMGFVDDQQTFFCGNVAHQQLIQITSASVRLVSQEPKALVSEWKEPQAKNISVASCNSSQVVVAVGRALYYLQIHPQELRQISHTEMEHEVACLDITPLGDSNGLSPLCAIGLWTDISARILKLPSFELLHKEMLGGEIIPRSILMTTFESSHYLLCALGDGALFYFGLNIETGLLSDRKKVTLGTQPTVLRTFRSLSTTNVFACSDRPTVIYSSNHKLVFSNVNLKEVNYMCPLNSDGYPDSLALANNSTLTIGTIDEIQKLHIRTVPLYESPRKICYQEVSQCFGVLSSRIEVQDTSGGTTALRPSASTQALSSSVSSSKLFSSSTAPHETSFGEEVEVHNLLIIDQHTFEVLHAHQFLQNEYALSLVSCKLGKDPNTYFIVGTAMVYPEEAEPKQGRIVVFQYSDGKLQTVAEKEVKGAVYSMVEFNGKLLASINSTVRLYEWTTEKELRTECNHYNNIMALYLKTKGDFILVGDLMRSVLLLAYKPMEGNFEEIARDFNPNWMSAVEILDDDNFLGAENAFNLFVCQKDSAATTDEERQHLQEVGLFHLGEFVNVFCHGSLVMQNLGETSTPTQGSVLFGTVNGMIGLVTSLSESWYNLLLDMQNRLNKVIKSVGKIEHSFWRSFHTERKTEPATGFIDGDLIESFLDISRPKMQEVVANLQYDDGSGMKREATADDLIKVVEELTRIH

| SMILES | DC50 (GSPT1; [1]) | IC50 (NCI-H1155 cells) | DC50 (GSPT1; [2]) |
| --- | --- | --- | --- |
| O=C1CCC(c2nc3ccc(C(=O)N4Cc5cccc(F)c5C45CC5)cc3o2)C(=O)N1 (stereo not drawn) [Example 211, 3-(6-(7′-fluorospiro[cyclopropane-1,1′-isoindoline]-2′-carbonyl)benzo[d]oxazol-2-yl)piperidine-2,6-dione] | > 1 µM | 0.1 to 1 µM | – |
| O=C1CCC(N2Cc3cc(C(=O)N4CC5(C=C(c6ccccc6F)C5)C4)ccc3C2=O)C(=O)N1 (stereo not drawn) [Example 208, 3-(5-(6-(2-fluorophenyl)-2-azaspiro[3.3]hept-5-ene-2-carbonyl)-1-oxoisoindolin-2-yl)piperidine-2,6-dione] | – | < 0.01 µM | < 0.1 µM |
| O=C1CCC(N2Cc3cc(C(=O)NC4CC5(C4)CC(c4ccc(F)cc4F)C5)ccc3C2=O)C(=O)N1 (stereo not drawn) [Example 218, N-(6-(2,4-difluorophenyl)spiro[3.3]heptan-2-yl)-2-(2,6-dioxopiperidin-3-yl)-1-oxoisoindoline-5-carboxamide] | < 0.1 µM | < 0.01 µM | – |
| O=C1CCC(N2Cc3cc(C(=O)N4CC5(C4)CC(F)(c4ccccc4F)C5)ccc3C2=O)C(=O)N1 (stereo not drawn) [Example 204, 3-(5-(6-fluoro-6-(2-fluorophenyl)-2-azaspiro[3.3]heptane-2-carbonyl)-1-oxoisoindolin-2-yl)piperidine-2,6-dione] | – | 0.1 to 1 µM | 0.1 to 0.3 µM |
| O=C1CCC(N2Cc3cc(C(=O)N4Cc5cccc(F)c5C45CC5)ccc3C2=O)C(=O)N1 (stereo not drawn) [Example 182, 3-(5-(7′-fluorospiro[cyclopropane-1,1′-isoindoline]-2′-carbonyl)-1-oxoisoindolin-2-yl)piperidine-2,6-dione] | – | < 0.01 µM | < 0.1 µM |
| O=C1CCC(c2nc3ccc(C(=O)N4CC5(C=C(c6ccc(F)cc6)C5)C4)cc3o2)C(=O)N1 (stereo not drawn) [Example 206, 3-(6-(6-(4-fluorophenyl)-2-azaspiro[3.3]hept-5-ene-2-carbonyl)benzo[d]oxazol-2-yl)piperidine-2,6-dione] | > 1 µM | > 1 µM | – |
| O=C1CCC(N2Cc3cc(C(=O)N4Cc5cc(F)cc(F)c5C4)ccc3C2=O)C(=O)N1 (stereo not drawn) [Example 103, 3-(5-(4,6-difluoroisoindoline-2-carbonyl)-1-oxoisoindolin-2-yl)piperidine-2,6-dione] | – | < 0.01 µM | < 0.1 µM |
| O=C1CCC(N2Cc3cc(C(=O)N4CC5(CC(c6ccc(F)cc6)C5)C4)ccc3C2=O)C(=O)N1 (stereo not drawn) [Example 205, 3-(5-(6-(4-fluorophenyl)-2-azaspiro[3.3]heptane-2-carbonyl)-1-oxoisoindolin-2-yl)piperidine-2,6-dione] | 0.1 to 0.3 µM | 0.01 to 0.1 µM | – |
| O=C1CCC(N2Cc3cc(C(=O)NC4CC5(C4)CC(c4ccc(F)c(F)c4)C5)ccc3C2=O)C(=O)N1 (stereo not drawn) [Example 217, N-(6-(3,4-difluorophenyl)spiro[3.3]heptan-2-yl)-2-(2,6-dioxopiperidin-3-yl)-1-oxoisoindoline-5-carboxamide] | 0.1 to 0.3 µM | 0.01 to 0.1 µM | – |
| O=C1CCC(N2Cc3cc(C(=O)N4CC5(C=C(c6cccc(F)c6)C5)C4)ccc3C2=O)C(=O)N1 (stereo not drawn) [Example 207, 3-(5-(6-(3-fluorophenyl)-2-azaspiro[3.3]hept-5-ene-2-carbonyl)-1-oxoisoindolin-2-yl)piperidine-2,6-dione] | – | 0.01 to 0.1 µM | < 0.1 µM |
| C[C@H]1c2c(F)cccc2CN1C(=O)c1ccc2c(c1)CN(C1CCC(=O)NC1=O)C2=O (stereo partly drawn) [Example 140, 3-(5-((S)-7-fluoro-1-methylisoindoline-2-carbonyl)-1-oxoisoindolin-2-yl)piperidine-2,6-dione] | – | > 1 µM | – |
| O=C1CCC(N2Cc3cc(C(=O)N4Cc5ccc(Cl)c(F)c5C4)ccc3C2=O)C(=O)N1 (stereo not drawn) [Example 172, 3-(5-(5-chloro-4-fluoroisoindoline-2-carbonyl)-1-oxoisoindolin-2-yl)piperidine-2,6-dione] | – | 0.01 to 0.1 µM | – |
| O=C1CCC(N2Cc3cc(C(=O)N4Cc5ccc(F)c(Cl)c5C4)ccc3C2=O)C(=O)N1 (stereo not drawn) [Example 144, 3-(5-(4-chloro-5-fluoroisoindoline-2-carbonyl)-1-oxoisoindolin-2-yl)piperidine-2,6-dione] | – | 0.01 to 0.1 µM | – |
| O=C1CCC(N2Cc3cc(C(=O)N4CC(F)(c5cccc(F)c5)C4)ccc3C2=O)C(=O)N1 (stereo not drawn) [Example 191, 3-(5-(3-fluoro-3-(3-fluorophenyl)azetidine-1-carbonyl)-1-oxoisoindolin-2-yl)piperidine-2,6-dione] | – | 0.1 to 1 µM | – |
| O=C1CCC(N2Cc3cc(C(=O)N4CC5(C4)CC(O)(c4ccc(F)cc4)C5)ccc3C2=O)C(=O)N1 (stereo not drawn) [Example 243, 3-(5-(6-(4-fluorophenyl)-6-hydroxy-2-azaspiro[3.3]heptane-2-carbonyl)-1-oxoisoindolin-2-yl)piperidine-2,6-dione] | – | > 1 µM | – |
| N#Cc1ccc(C2CC3(C2)CN(C(=O)c2ccc4c(c2)CN(C2CCC(=O)NC2=O)C4=O)C3)cc1 (stereo not drawn) [Example 232, 4-(2-(2-(2,6-dioxopiperidin-3-yl)-1-oxoisoindoline-5-carbonyl)-2-azaspiro[3.3]heptan-6-yl)benzonitrile] | – | 0.1 to 1 µM | – |

The next lines start with results.

| DC50 (GSPT1; [1]) | IC50 (NCI-H1155 cells) | SMILES | DC50 (GSPT1; [2]) |
| --- | --- | --- | --- |
| < 0.1 µM | 0.01 to 0.1 µM | O=C1CCC(N2Cc3cc(C(=O)NC4CC5(C4)CC(c4ccc(F)cc4F)C5)c(F)cc3C2=O)C(=O)N1 (stereo not drawn) [Example 255, N-(6-(2,4-difluorophenyl)spiro[3.3]heptan-2-yl)-2-(2,6-dioxopiperidin-3-yl)-6-fluoro-1-oxoisoindoline-5-carboxamide] | – |
| 0.3 to 1 µM | 0.1 to 1 µM | O=C1CCC(c2nc3ccc(C(=O)N4CCc5ccc(F)cc54)cc3o2)C(=O)N1 (stereo not drawn) [Example 107, 3-(6-(6-fluoroindoline-1-carbonyl)benzo[d]oxazol-2-yl)piperidine-2,6-dione] | – |
| 0.3 to 1 µM | 0.01 to 0.1 µM | O=C1CCC(c2nc3ccc(C(=O)N4Cc5cc(F)cc(Cl)c5C4)cc3o2)C(=O)N1 (stereo not drawn) [Example 178, 3-(6-(4-chloro-6-fluoroisoindoline-2-carbonyl)benzo[d]oxazol-2-yl)piperidine-2,6-dione] | – |
| 0.1 to 0.3 µM | 0.1 to 1 µM | O=C1CCC(N2Cc3cc(C(=O)NC4CC5(C4)CC(c4ccc(C(F)(F)F)cc4F)C5)ccc3C2=O)C(=O)N1 (stereo not drawn) [Example 258, 2-(2,6-dioxopiperidin-3-yl)-N-(6-(2-fluoro-4-(trifluoromethyl)phenyl)spiro[3.3]heptan-2-yl)-1-oxoisoindoline-5-carboxamide] | – |
| 0.3 to 1 µM | 0.1 to 1 µM | O=C1CCC(c2nc3ccc(C(=O)N4Cc5cccc(C(F)(F)F)c5C4)cc3o2)C(=O)N1 (stereo not drawn) [Example 174, 3-(6-(4-(trifluoromethyl)isoindoline-2-carbonyl)benzo[d]oxazol-2-yl)piperidine-2,6-dione] | – |
| – | 0.1 to 1 µM | O=C1CCC(c2nc3ccc(C(=O)N4CCc5c(F)cc(F)cc54)cc3o2)C(=O)N1 (stereo not drawn) [Example 175, 3-(6-(4,6-difluoroindoline-1-carbonyl)benzo[d]oxazol-2-yl)piperidine-2,6-dione] | – |
| – | 0.1 to 1 µM | O=C1CCC(N2Cc3cc(C(=O)N4CC(F)(c5ccc(F)cc5)C4)ccc3C2=O)C(=O)N1 (stereo not drawn) [Example 170, 3-(5-(3-fluoro-3-(4-fluorophenyl)azetidine-1-carbonyl)-1-oxoisoindolin-2-yl)piperidine-2,6-dione] | – |
| – | 0.01 to 0.1 µM | N#Cc1cc(F)c2c(c1)CN(C(=O)c1ccc3c(c1)CN(C1CCC(=O)NC1=O)C3=O)C2 (stereo not drawn) [Example 156, 2-(2-(2,6-dioxopiperidin-3-yl)-1-oxoisoindoline-5-carbonyl)-7-fluoroisoindoline-5-carbonitrile] | – |
